Key:
[1] = In-vivo: radiated tooth samples treated with protector, 5 days in the oral cavity, Knoop hardness; design: species or system human; details: for delta: change of hardness (increase of depth of penetration): radiation + 5 days in oral cavity, 0.1% fluoride or 4% bisphosphonate e-polylysine with CaCl2 and KH2PO4
Description: A device is constructed that can contain up to 6 experimental tooth samples for positioning in the oral cavity. […] The construction of the experimental tooths samples is outlined in chapter C.2.“Results; in-vivo experiments”. In the oral cavity, the tooth samples are positioned in the device in such a way that the enamel surfaces are subjected to physical contact with the tongue and are submerged in saliva. […] In experiments where the device is residing a long time period in the oral cavity (5 days and more), a metal network is positioned just above the surface of the experimental teeth, in order to provide support for the bacteria and stimulate it's growth path. It is also possible to measure the residual protection competence by removing the tooth samples from the oral cavity at the end of the selected residence time and treating them with acid under laboratory conditions.
The device was positioned after the lower jaw in the oral cavity for a period of five days. After removal from the oral cavity, the samples where cleaned and the hardness was measured.
Tooth samples have been cut in horizontal slices (thickness: 0.3 to 1 mm) with a Leitz 1600 tooth cutter with horizontal cutting blade; the slices are cut manually (with a bore) into small tooth samples that contain a small part of the original tooth surface. The tooth sample is positioned in a small plastic tube, that has been cut from a long plastic tube with 6 mm external diameter. The length of the tube is 3 to 6 mm. The inner part of the tube is filled with a polymer that hardens under light (Photoclearfil Bright; Kuraray). The tooth sample is positioned in the soft polymer inside the tube, in such a way that the original tooth surface is just surfacing above the tube. Finally the polymer is hardened with a light source. The tooth surface is polished with Struers silicon carbid paper (800-4000) and the hardness is measured 5 times on each of the samples under the Letiz Wetzlar microscope (weight on needle: 50 p). Tooth samples with a maximum average depth of penetration of 43 μm are retained for use in the oral cavity.
Tooth samples have been subjected to a radiation dose that is equal to the amount that is given to patients with oral cancer (20 Gray) and have been sterilized. […] A drop of the solution was positioned on the tooth surface and allowed to reside for a period of 30 minutes at 37 C.; the procedure was repeated after removal of the drop with pressured air. Finally the drop was removed, the tooth was dried on air and fixed to the device. In total six tooth samples have been fixed to the device and positioned in the oral cavity after the lower jaw. It remained in the oral cavity for a period of 5 days (day and night). After completion of the required residence time, the device was removed from the oral cavity and the experimental teeth where separated from the device and washed. The hardness was measured according to the Knoop method, six times on each of the tooth samples.
B: the stage at which the hardness of the tooth surface has been measured with the Knoop method. (before the treatment; after radiation and before addition of protector formulation to the surface; after addition of protector to the surface of the tooth and after residing five days in the oral cavity).
B: the stage at which the hardness of the tooth surface has been measured with the Knoop method.

[2] = In-vivo: residual protection, radiated samples after 5 days in oral cavity treated with acetic acid; design: species or system human
Description: N: number of tooth samples A: hardness(μm) after radiation and 5 days residence in the oral cavity B: hardness after radiation and 5 days in the oral cavity and treatment with acetic acid

bisphosphonylated epsilon-polylysine [bisphosphonylated e-polylysine]
Mean hardness (depth of penetration) ([1]; after protector and 5 days oral cavity, 0.1% NaF or 4% bisphosphonate e-polylysine with CaCl2 and KH2PO4): 41.97 μm | Mean hardness (depth of penetration) ([1]; after radiation, before addition of protector (baseline of group)): 41.02 μm | delta: change of hardness ([1]; after radiation, before addition of the formulation): 0.15 μm | delta: change of hardness (increase of depth of penetration) ([1]; listed as bisphosphonate e-polylysine): 1.10 μm | delta: change of hardness (increase of depth of penetration) ([1]; listed as bisphosphonylated epsilon-polylysine): 1.1 μm | Mean hardness (depth of penetration) ([1]; start, before treatment (baseline of group)): 40.87 μm | C: B−A (increase of depth of penetration by acid) ([2]; acetic acid 0.1N, 30 min, 37° C. after 5 days in oral cavity): 3.9 μm | B: hardness after radiation and 5 days in the oral cavity and treatment with acetic acid ([2]; acetic acid 0.1N, pH 5, 30 min, 37° C.): 44.5 μm | A: hardness after radiation and 5 days residence in the oral cavity ([2]; samples later treated with acid): 40.6 μm

Reference: US20080226565A1, “Anticariogenic Proteins & Peptides & Saccharides” (priority 2004, published 2008)
